Test results: PMC12645083, “Microwave‐Enhanced Synthesis of 2‐Styrylquinoline‐4‐Carboxamides With Promising Anti‐Lymphoma Activity” (Archiv Der Pharmazie, 2025)

Key:
VL51 [1] = assay: Antiproliferative activity on lymphoma-derived cell lines, resazurin; format: cell-based; details: Homo sapiens, splenic B-cell lymphoma, 72 h of treatment, mean ± SEM
Description: (§1) To test the newly synthesized compounds, various human cell lines were employed. HD‐MB03 cells were purchased from DSMZ (Braunschweig, Germany), while A549, MDA‐MB‐231, RPMI‐8420, SU‐DHL‐8, TOLEDO, VL51, SU‐DHL‐1, SU‐DHL‐18, and KM‐H2 were obtained from ATCC (Manassas, VA, USA). Cells were cultured in DMEM (for MDA‐MB‐231 and A549) or RPMI‐1640 (for RPMI‐8420, SU‐DHL‐8, TOLEDO, VL51, SU‐DHL‐1, SU‐DHL‐18, KM‐H2, and HD‐MB03) media (Gibco, Milan, Italy). Both media were supplemented with 115 units/mL penicillin G (Gibco, Milan, Italy), 115 µg/mL streptomycin (Invitrogen, Milan, Italy), and 10% fetal bovine serum (Invitrogen, Milan, Italy). Peripheral blood mononuclear cells (PBMCs) were isolated from healthy donors as previously described. For cytotoxicity assays, PBMCs were resuspended at 5 × 10⁵ cells/mL in complete RPMI medium with or without 2.5 µg/mL phytohemagglutinin (PHA) (Irvine Scientific) to stimulate T‐cell activation and proliferation. All cell lines were maintained at 37°C in a humidified atmosphere containing 5% CO₂. All compounds were dissolved in DMSO at a 10 mM stock concentration. For dose–response assays, cells were seeded in 96‐well plates at densities optimized for each cell line: HD‐MB03 at 10,000 cells/well, A549 at 4000 cells/well, and MDA‐MB‐231 at 7000 cells/well. All other cell lines were seeded at 20,000 cells/well in a final volume of 100 µL per well. After 24 h, cells were treated with a 6‐point serial dilution of compounds starting from 10 µM, in triplicate for statistical analysis. Seventy‐2 h posttreatment, 10 µL of resazurin solution (100 µg/mL) was added to each well, and cells were incubated for an additional 3–6 h. Fluorescence was measured using a Spark 10 M microplate reader (Tecan Group Ltd., Männedorf, Switzerland) with excitation at 535 nm and emission at 600 nm. The IC₅₀ was defined as the concentration of compound required to inhibit cell proliferation by 50% compared to cells treated with the highest DMSO concentration.
(§2) To test the newly synthesized compounds, various human cell lines were employed. HD-MB03 cells were purchased from DSMZ (Braunschweig, Germany), while A549, MDA-MB-231, RPMI-8420, SU-DHL-8, TOLEDO, VL51, SU-DHL-1, SU-DHL-18, and KM-H2 were obtained from ATCC (Manassas, VA, USA). Cells were cultured in DMEM (for MDA-MB-231 and A549) or RPMI-1640 (for RPMI-8420, SU-DHL-8, TOLEDO, VL51, SU-DHL-1, SU-DHL-18, KM-H2, and HD-MB03) media (Gibco, Milan, Italy). Both media were supplemented with 115 units/mL penicillin G (Gibco, Milan, Italy), 115 µg/mL streptomycin (Invitrogen, Milan, Italy), and 10% fetal bovine serum (Invitrogen, Milan, Italy). Peripheral blood mononuclear cells (PBMCs) were isolated from healthy donors as previously described. ^[1] For cytotoxicity assays, PBMCs were resuspended at 5 × 10⁵ cells/mL in complete RPMI medium with or without 2.5 µg/mL phytohemagglutinin (PHA) (Irvine Scientific) to stimulate T cell activation and proliferation. All cell lines were maintained at 37 °C in a humidified atmosphere containing 5% CO₂. All compounds were dissolved in DMSO at a 10 mM stock concentration. For dose–response assays, cells were seeded in 96-well plates at densities optimized for each cell line: HD-MB03 at 10,000 cells/well, A549 at 4,000 cells/well, and MDA-MB-231 at 7,000 cells/well. All other cell lines were seeded at 20,000 cells/well in a final volume of 100 µL per well. After 24 hours, cells were treated with a 6-point serial dilution of compounds starting from 10 µM, in triplicate for statistical analysis. Seventy-two hours post-treatment, 10 µL of resazurin solution (100 µg/mL) was added to each well, and cells were incubated for an additional 3–6 hours. Fluorescence was measured using a Spark 10M microplate reader (Tecan Group Ltd., Männedorf, Switzerland) with excitation at 535 nm and emission at 600 nm. […]

SU-DHL-18 = assay: as above; format: cell-based; details: Homo sapiens; lymph node lymphoma; 72 h of treatment; mean ± SEM
Description: as §1, §2

KM-H2 = assay: as above; format: cell-based; details: Homo sapiens, Hodgkin lymphoma, 72 h of treatment, mean ± SEM
Description: as §1, §2

SU-DHL-1 = assay: as above; format: cell-based; details: Homo sapiens, histiocytic large cell lymphoma, 72 h of treatment, mean ± SEM
Description: as §1, §2

TOLEDO = assay: as above; format: cell-based; details: Homo sapiens, diffuse large B-cell lymphoma, 72 h of treatment, mean ± SEM
Description: as §1, §2

RPMI-8402 = assay: In vitro antiproliferative activity, resazurin cell viability; format: cell-based; details: Homo sapiens, T-lymphoblastic leukemia cells, 72 h of treatment, mean ± SEM
Description: as §1, §2

MDA-MB-231 = assay: as above; format: cell-based; details: Homo sapiens, triple-negative breast cancer, 72 h of treatment, mean ± SEM
Description: as §1, §2

A549 = assay: as above; format: cell-based; details: Homo sapiens, non-small cell lung cancer, 72 h of treatment, mean ± SEM
Description: as §1, §2

HD-MB03 = assay: as above; format: cell-based; details: Homo sapiens, medulloblastoma cells, 72 h of treatment, mean ± SEM, at least three experiments
Description: as §1, §2

SU-DHL-8 = assay: as above; format: cell-based; details: Homo sapiens, B lymphocyte, large cell lymphoma, 72 h of treatment, mean ± SEM
Description: as §1, §2

VL51 [2] = assay: Cell-cycle analysis (flow cytometry); format: cell-based, human; details: 2 µM, 48 h
Description: Cells were plated in 12‐well plates at 0.2 × 10⁶ cells/mL in 1 mL of complete medium. After 24 h, cells were treated with the specified compound concentrations. Following an additional 24 h, cells were harvested, centrifuged, and fixed in 70% ice‐cold ethanol. Cells were then stained and processed as previously described. Data acquisition was performed using a Coulter Cytomics FC500 flow cytometer (Beckman Coulter).

VL51 [3] = assay: Mitochondrial membrane potential analysis (TMRE); format: cell-based, human; details: 24 h of treatment
Description: Cells were plated in 12‐well plates at 0.2 × 10⁶ cells/mL in 1 mL of complete medium. After 24 h, cells were treated with the indicated compound concentrations. Following a further 24‐h incubation, cells were stained with TMRE (Invitrogen, US) at 1 µM for 20 min. After washing with 1X PBS, fluorescence was detected using a CytoFLEX flow cytometer (Beckman Coulter) and analyzed with FlowJo software v.10.7.1.

| IC50 (VL51 [1]) [µM] | IC50 (SU-DHL-18) [µM] | IC50 (KM-H2) [µM] | IC50 (SU-DHL-1) [µM] | IC50 (TOLEDO) [µM] | IC50 (MDA-MB-231) [µM] | IC50 (A549) [µM] | IC50 (SU-DHL-8) [µM] | SMILES | IC50 (RPMI-8402) [µM] | IC50 (HD-MB03) [µM] | Cell-cycle distribution (VL51 [2]) | Mitochondrial membrane depolarization (TMRE-negative cells) (VL51 [3]) |
| --- | --- | --- | --- | --- | --- | --- | --- | --- | --- | --- | --- | --- |
| > 10 | 3.79 ± 0.51 | 6.74 ± 2.12 | 4.9 ± 0.31 | 4.93 ± 0.62 | 4.99 ± 0.35 | 6.92 ± 0.68 | 2.15 ± 0.45 | O=C(Nc1ccc(Cl)cc1)c1cc(/C=C/c2ccccc2[N+](=O)[O-])nc2ccccc12 [4ah, (E)-N-(4-chlorophenyl)-2-(2-nitrostyryl)quinoline-4-carboxamide] | 1.33 ± 0.02 | > 10 |  |  |
| 1.03 ± 0.02 | 7.6 ± 2.8 | 2.8 ± 0.21 | 2.32 ± 1.46 | 1.05 ± 0.09 | > 10 | > 10 | 1.64 ± 0.25 | O=C(Nc1ccc([N+](=O)[O-])cc1)c1cc(/C=C/c2ccccc2)nc2ccccc12 [4i, (E)-N-(4-nitrophenyl)-2-styrylquinoline-4-carboxamide] | 1.14 ± 0.12 | > 10 | significant accumulation of cells in the G₂/M phase | increased percentage of TMRE‐negative cells |
| > 10 | > 10 | > 10 | > 10 | > 10 | > 10 | > 10 | 0.46 ± 0.05 | COc1cc(/C=C/c2cc(C(=O)Nc3c(C)cccc3C)c3ccccc3n2)cc(OC)c1OC [4n, (E)-N-(2,6-dimethylphenyl)-2-(3,4,5-trimethoxystyryl)quinoline-4-carboxamide] | 0.79 ± 0.07 | > 10 |  |  |
| > 10 | > 10 | > 10 | > 10 | > 10 | > 10 | > 10 | 1.37 ± 0.14 | COc1cc(/C=C/c2cc(C(=O)Nc3ccc([N+](=O)[O-])cc3)c3ccccc3n2)cc(OC)c1OC [4s, (E)-N-(4-nitrophenyl)-2-(3,4,5-trimethoxystyryl)quinoline-4-carboxamide] | > 10 | > 10 |  |  |
